Values joined by “and” are separate entries in the source; they are usually repeats but may differ in a detail not shown here. Equal entries are not always repeated.
How the values were obtained:
[1] = tested on: SARS-CoV-2 (Beta, B.1.351); experiment: microbe, parasite or virus in culture; assay type: cell-based; settings: for % Inhibition: beta
[2] = tested on: SARS-CoV-2 (B.1) in Huh7 cells; experiment: Anti-SARS-CoV-2 activity in Huh7 cells (viral yield by qRT-PCR); assay type: cell-based; settings: B.1, MOI 0.05, 48 h
[3] = tested on: SARS-CoV-2 (Delta, B.1.617.2); experiment: microbe, parasite or virus in culture; assay type: cell-based; settings: for % Inhibition: delta
[4] = tested on: SARS-CoV-2 replicon system (pBAC-SARS-CoV-2-Replicon-Luc); experiment: microbe, parasite or virus in culture; assay type: cell-based; settings: Severe acute respiratory syndrome coronavirus 2, HEK-293T, 60 h
Vero E6 cells = experiment: CCK-8 cell viability assay; assay type: cell-based, African green monkey; settings: individual replicate values, Fig.S4
Outline: (§1)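 Vero E6 cells, 20,000/well, exposed to compound at 0–200 μM (0, 0.01, 0.1, 1, 5, 10, 50, 75, 100, 200 μM) for 48 h; viability read by CCK-8 and expressed as percentage versus drug concentration, mean ± SD.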

[5] = CCK-8 cell viability assay; assay type: cell-based, African green monkey; settings: African green monkey; Vero E6 cells, 48 h, CCK8
Outline: as §1

SARS-CoV-2 (B.1) = experiment: Anti-SARS-CoV-2 activity in Vero E6 cells (viral yield by qRT-PCR); assay type: cell-based

CC(C)CC(=O)OC[C@H]1O[C@@](C#N)(c2ccc3c(N)ncnn23)[C@H](O)[C@@H]1O [ATV017]
EC50 ([1]; Severe acute respiratory syndrome coronavirus 2, Vero C1008, 48 h, read-out: EC50 in Vero E6 cells, SARS-CoV-2 (Beta, B.1.351)): 2850 nM
inhibition at 0.01 µM ([1]; Severe acute respiratory syndrome coronavirus 2, Vero C1008, beta, 0.01 uM, Vero E6, replicates): 0%
inhibition at 0.1 µM ([1]; Severe acute respiratory syndrome coronavirus 2, Vero C1008, beta, 0.1 uM, Vero E6, replicates): 0%
inhibition at 0.25 µM ([1]; Severe acute respiratory syndrome coronavirus 2, Vero C1008, beta, 0.25 uM, Vero E6, replicates): 0%
inhibition at 0.5 µM ([1]; Severe acute respiratory syndrome coronavirus 2, Vero C1008, beta, 0.5 uM, Vero E6, replicates): 0%
inhibition at 1 µM ([1]; Severe acute respiratory syndrome coronavirus 2, Vero C1008, beta, 1 uM, Vero E6, replicates): 0%
inhibition at 5 µM ([1]; Severe acute respiratory syndrome coronavirus 2, Vero C1008, beta, 5 uM, Vero E6, replicates): 99.7%
inhibition at 10 µM ([1]; Severe acute respiratory syndrome coronavirus 2, Vero C1008, beta, 10 uM, Vero E6, replicates): 99.9%
EC90 ([1]; Severe acute respiratory syndrome coronavirus 2, Vero C1008, read-out: EC90 (Confidence 95%), Vero-E6, Beta B.1.351): 3400 nM
% Inhibition ([1]; 0.01 uM, Vero E6, replicates): 0%
% Inhibition ([1]; 0.1 uM, Vero E6, replicates): 0%
% Inhibition ([1]; 0.25 uM, Vero E6, replicates): 0%
% Inhibition ([1]; 0.5 uM, Vero E6, replicates): 0%
% Inhibition ([1]; 1 uM, Vero E6, replicates): 0%
% Inhibition ([1]; 2 uM, Vero E6, replicates): 6.056% and 0%
% Inhibition ([1]; 5 uM, Vero E6, replicates): 99.5481%
% Inhibition ([1]; 10 uM, Vero E6, replicates): 99.9499%
% Inhibition ([1]; 50 uM, Vero E6, replicates): 99.982%
EC50 ([2]; Severe acute respiratory syndrome coronavirus 2, Huh-7, read-out: EC50 (Confidence 95%) in Huh7 cells): 905 nM
EC90 ([2]; Severe acute respiratory syndrome coronavirus 2, Huh-7, read-out: EC90 (Confidence 95%) in Huh7 cells): 1170 nM
EC50 ([3]; Severe acute respiratory syndrome coronavirus 2, Vero C1008, 48 h, read-out: EC50 in Vero E6 cells, SARS-CoV-2 (Delta, B.1.617.2)): 428 nM
inhibition at 0.01 µM ([3]; Severe acute respiratory syndrome coronavirus 2, Vero C1008, delta, 0.01 uM, Vero E6, replicates): 0%
inhibition at 0.1 µM ([3]; Severe acute respiratory syndrome coronavirus 2, Vero C1008, delta, 0.1 uM, Vero E6, replicates): 0%
inhibition at 0.25 µM ([3]; Severe acute respiratory syndrome coronavirus 2, Vero C1008, delta, 0.25 uM, Vero E6, replicates): 0%
inhibition at 0.5 µM ([3]; Severe acute respiratory syndrome coronavirus 2, Vero C1008, delta, 0.5 uM, Vero E6, replicates): 82.8%
inhibition at 1 µM ([3]; Severe acute respiratory syndrome coronavirus 2, Vero C1008, delta, 1 uM, Vero E6, replicates): 90.3%
inhibition at 2 µM ([3]; Severe acute respiratory syndrome coronavirus 2, Vero C1008, delta, 2 uM, Vero E6, replicates): 94.4%
inhibition at 5 µM ([3]; Severe acute respiratory syndrome coronavirus 2, Vero C1008, delta, 5 uM, Vero E6, replicates): 93.9%
inhibition at 10 µM ([3]; Severe acute respiratory syndrome coronavirus 2, Vero C1008, delta, 10 uM, Vero E6, replicates): 100%
EC90 ([3]; Severe acute respiratory syndrome coronavirus 2, Vero C1008, read-out: EC90 (Confidence 95%), Vero-E6, Delta B.1.617.2): 516 nM
% Inhibition ([3]; 0.01 uM, Vero E6, replicates): 0%
% Inhibition ([3]; 0.1 uM, Vero E6, replicates): 0%
% Inhibition ([3]; 0.25 uM, Vero E6, replicates): 0%
% Inhibition ([3]; 0.5 uM, Vero E6, replicates): 80.6558%
% Inhibition ([3]; 1 uM, Vero E6, replicates): 88.2825%
% Inhibition ([3]; 2 uM, Vero E6, replicates): 91.1914%
% Inhibition ([3]; 5 uM, Vero E6, replicates): 90.8502%
% Inhibition ([3]; 10 uM, Vero E6, replicates): 99.8554%
% Inhibition ([3]; 50 uM, Vero E6, replicates): 99.5879%
EC50 ([4]; read-out: EC50 (Confidence 95%), replicon): 433 nM
EC90 ([4]; read-out: EC90 (Confidence 95%), replicon): 576 nM
cell viability (% of control) (Vero E6 cells; 1 μM compound, 1 µM): 88.7524 % of control and 100.803 % of control and 120.919 % of control
cell viability (% of control) (Vero E6 cells; 2 μM compound, 2 µM): 88.0108 % of control and 98.9031 % of control and 128.104 % of control
cell viability (% of control) (Vero E6 cells; 5 μM compound, 5 µM): 90.8382 % of control and 109.656 % of control and 135.798 % of control
cell viability (% of control) (Vero E6 cells; 10 μM compound, 10 µM): 94.2217 % of control and 115.404 % of control and 120.363 % of control
cell viability (% of control) (Vero E6 cells; 20 μM compound, 20 µM): 80.7802 % of control and 92.136 % of control and 131.024 % of control
cell viability (% of control) (Vero E6 cells; 50 μM compound, 50 µM): 71.9737 % of control and 85.3225 % of control and 97.3272 % of control
CC50 at 48 h [5]: > 50000 nM
% Inhibition (SARS-CoV-2 (B.1); 0.1 μM, replicates, sheet Fig.S3): 0%
% Inhibition (SARS-CoV-2 (B.1); 0.5 μM, replicates, sheet Fig.S3): 0%
% Inhibition (SARS-CoV-2 (B.1); 1 μM, replicates, sheet Fig.S3): 65.5016%
% Inhibition (SARS-CoV-2 (B.1); 2 μM, replicates, sheet Fig.S3): 89.9686%
% Inhibition (SARS-CoV-2 (B.1); 5 μM, replicates, sheet Fig.S3): 91.0527%
% Inhibition (SARS-CoV-2 (B.1); 10 μM, replicates, sheet Fig.S3): 91.8254%
% Inhibition (SARS-CoV-2 (B.1); B.1, 0.01 uM, Vero E6, replicates): 0%
% Inhibition (SARS-CoV-2 (B.1); B.1, 0.1 uM, Vero E6, replicates): 0%
% Inhibition (SARS-CoV-2 (B.1); B.1, 0.25 uM, Vero E6, replicates): 0%
% Inhibition (SARS-CoV-2 (B.1); B.1, 0.5 uM, Vero E6, replicates): 0%
% Inhibition (SARS-CoV-2 (B.1); B.1, 1 uM, Vero E6, replicates): 0%
% Inhibition (SARS-CoV-2 (B.1); B.1, 5 uM, Vero E6, replicates, 5 µM): 99.7611%
% Inhibition (SARS-CoV-2 (B.1); B.1, 10 uM, Vero E6, replicates, 10 µM): 99.9908%
% Inhibition (SARS-CoV-2 (B.1); B.1, 50 uM, Vero E6, replicates, 50 µM): 99.9887%
inhibition at 0.1 µM (SARS-CoV-2 (B.1); Severe acute respiratory syndrome coronavirus 2, Vero C1008, 0.1 μM, replicates, sheet Fig.S3): 0%
inhibition at 0.5 µM (SARS-CoV-2 (B.1); Severe acute respiratory syndrome coronavirus 2, Vero C1008, 0.5 μM, replicates, sheet Fig.S3): 0%
inhibition at 1 µM (SARS-CoV-2 (B.1); Severe acute respiratory syndrome coronavirus 2, Vero C1008, 1 μM, replicates, sheet Fig.S3): 62.2%
inhibition at 2 µM (SARS-CoV-2 (B.1); Severe acute respiratory syndrome coronavirus 2, Vero C1008, 2 μM, replicates, sheet Fig.S3): 89.2%
inhibition at 5 µM (SARS-CoV-2 (B.1); Severe acute respiratory syndrome coronavirus 2, Vero C1008, 5 μM, replicates, sheet Fig.S3): 92.3%
inhibition at 10 µM (SARS-CoV-2 (B.1); Severe acute respiratory syndrome coronavirus 2, Vero C1008, 10 μM, replicates, sheet Fig.S3): 93.6%
inhibition at 0.01 µM (SARS-CoV-2 (B.1); Severe acute respiratory syndrome coronavirus 2, Vero C1008, B.1, 0.01 uM, Vero E6, replicates): 0%
inhibition at 0.1 µM (SARS-CoV-2 (B.1); Severe acute respiratory syndrome coronavirus 2, Vero C1008, B.1, 0.1 uM, Vero E6, replicates): 0%
inhibition at 0.25 µM (SARS-CoV-2 (B.1); Severe acute respiratory syndrome coronavirus 2, Vero C1008, B.1, 0.25 uM, Vero E6, replicates): 0%
inhibition at 0.5 µM (SARS-CoV-2 (B.1); Severe acute respiratory syndrome coronavirus 2, Vero C1008, B.1, 0.5 uM, Vero E6, replicates): 0%
inhibition at 1 µM (SARS-CoV-2 (B.1); Severe acute respiratory syndrome coronavirus 2, Vero C1008, B.1, 1 uM, Vero E6, replicates): 0%
inhibition at 5 µM (SARS-CoV-2 (B.1); Severe acute respiratory syndrome coronavirus 2, Vero C1008, B.1, 5 uM, Vero E6, replicates): 99.6%
inhibition at 10 µM (SARS-CoV-2 (B.1); Severe acute respiratory syndrome coronavirus 2, Vero C1008, B.1, 10 uM, Vero E6, replicates): 99.9%
inhibition at 50 µM (SARS-CoV-2 (B.1); Severe acute respiratory syndrome coronavirus 2, Vero C1008, B.1, 50 uM, Vero E6, replicates): 99.9%
EC90 (SARS-CoV-2 (B.1); Severe acute respiratory syndrome coronavirus 2, Vero C1008, read-out: EC90 (Confidence 95%), Vero-E6, B.1): 2480 nM
EC50 (SARS-CoV-2 (B.1); Severe acute respiratory syndrome coronavirus 2, Vero C1008, MOI 0.05, 48 h): 2190 nM

Source: article PMC9161374 (Science Translational Medicine, 2022)
